Test results from patent publication EP4656642A1, “ESTROGEN RECEPTOR PROTEOLYSIS TARGETING CHIMERA COMPOUND AND USE THEREOF” (GAN & LEE PHARM CO., LTD, priority 2023, dated 2024).

Columns and labels:
Format in all cases: cell-based
ERα [1] = target: T1, ERα (Homo sapiens, UniProt P03372); assay: Degradation of ERα in T-47D cells (immunoblotting, 4 h); parameters: host or cells: T-47D
T1 sequence (P03372 1-595): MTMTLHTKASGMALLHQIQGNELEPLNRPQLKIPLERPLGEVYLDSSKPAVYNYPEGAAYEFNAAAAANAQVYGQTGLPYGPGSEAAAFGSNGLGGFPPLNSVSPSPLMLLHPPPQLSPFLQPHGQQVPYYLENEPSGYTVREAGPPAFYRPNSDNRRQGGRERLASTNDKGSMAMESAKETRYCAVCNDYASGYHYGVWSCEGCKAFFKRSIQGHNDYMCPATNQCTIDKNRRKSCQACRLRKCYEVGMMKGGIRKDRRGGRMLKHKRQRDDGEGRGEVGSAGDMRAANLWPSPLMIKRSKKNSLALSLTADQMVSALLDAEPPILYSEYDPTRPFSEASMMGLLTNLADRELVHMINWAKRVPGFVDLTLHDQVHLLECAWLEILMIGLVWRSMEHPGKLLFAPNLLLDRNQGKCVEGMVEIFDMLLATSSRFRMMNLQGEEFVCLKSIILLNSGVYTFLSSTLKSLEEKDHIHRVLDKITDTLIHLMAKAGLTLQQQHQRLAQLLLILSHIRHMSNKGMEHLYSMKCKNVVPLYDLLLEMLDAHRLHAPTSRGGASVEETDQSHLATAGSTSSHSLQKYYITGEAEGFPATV
Protocol: (§1) T-47D cells were inoculated into 6-well plates at a density of 3×10^5 cells/well and cultured at 37°C, 5% CO2 for 24 h. After the cells were attached to the wall, 1µL of the compound solution in dimethyl sulfoxide (final concentration 0.15-1000 nM) was added and continued to be cultured in the incubator with 5% CO2 at 37°C for 4 h. After 4 h, the culture medium was discarded, and each well was washed once with pre-cooled 1×DPBS, and the cells were lysed with a mixture of 50 µL of RIPA lysis buffer (P0013B, Beyotime) and 1× protease inhibitor (P1005, Beyotime), and then centrifuged at 14,000 g for 30 min at 4°C after resting on ice for 20 min, and the supernatant was carefully collected to detect the protein level of ERα by protein immunoblotting (Immunoblotting).

MCF-7 cells = assay: Inhibition of cell proliferation of MCF-7 cells (CCK-8, 9 days); conditions: treated for 9 days, CCK-8 kit (Table 6)
Text: Test Example 4 Inhibitory effect of the PROTAC compounds disclosed in the present disclosure on cell proliferation of MCF-7 cells
The complete medium required for MCF-7 cells (source ATCC) was DMEM (gibco, Product number :11995-065) basal medium containing 10% fetal bovine serum. MCF-7 cells were inoculated in 96-well plates at a density of 800 cells/well, and different concentrations of the PROTAC compounds 1-55 provided in the embodiments of the present disclosure and a positive control sample ARV-471 (source: Innochem) were prepared to treat cells, and cells were treated at 37°C in a cell culture incubator with 5% CO2 for 9 days. Cell viability was detected using a CCK -8 kit (Beyotime , Product number: C0040) according to the manufacturer's instruction. […] Table 5 IC50 values for inhibition of the proliferation of MCF-7 cells by the PROTAC compounds of the present disclosure and positive control sample

ERα [2] = target: T1, ERα; assay: Degradation of ERα in MCF-7 cells (immunoblotting, 4 h)
Protocol: as §1, with “MCF-7” for “T-47D”, “24h.” for “24 h.”, “0.15-1000nM)” for “0.15-1000 nM)”, “in” for “in the”, “incubator at 37°C” for “incubator”, “CO2” for “CO2 at 37°C”
Protein immunoblotting: The total protein concentration in the collected cell lysate supernatant was determined by BCA Protein Concentration Assay Kit (Enhanced) (P0009, Beyotime). According to the total protein concentration detected by BCA, the protein was adjusted to 1 µg/µL with RIPA lysis buffer and 5× SDS-PAGE protein loading buffer (MB01015, Genscript), and the protein was denatured by water bath at 95°C for 5 min, and then centrifuged after denaturation to enrich the condensate on the wall of the centrifuge tubes as a loading sample. […] At the end of electrophoresis, the proteins in the SDS-PAGE gels were transferred to a PVDF membrane at a constant voltage of 100 V for 60 min. After that, the PVDF membrane corresponding to ERα protein and internal reference protein was cut out and incubated in 1×QµickBlock blocking solution (P0252, Beyotime) for 30 min at room temperature on a shaker. […] Protein profiles were analyzed by Image Studio Lite analysis software for grayscale values. Grayscale correction values were calculated for each sample using the Formula: corrected grayscale value = grayscale value of the target protein /corresponding grayscale value of the internal reference. The degradation rate for the compounds was then calculated by comparing the corrected grayscale values of the compound group to the control group. Table 7 Degradation rate (%) of ERα by the PROTAC compounds of the present disclosure and positive control sample in MCF-7 cells

| Compound | Degradation rate (%) of ERα in T-47D cells (ERα [1]; 1nM compound) [%] | Degradation rate (%) of ERα in T-47D cells (ERα [1]; 10nM compound) [%] | IC50 (MCF-7 cells) [nM] | Degradation rate (%) of ERα in MCF-7 cells (ERα [2]; 1nM compound) [%] | Degradation rate (%) of ERα in MCF-7 cells (ERα [2]; 10nM compound) [%] |
| --- | --- | --- | --- | --- | --- |
| O=C1CCC(N2Cc3cc4c(cc3C2=O)OC2(CC4)CN(C(=O)CN3CCC4(CC3)CCN(c3ccc([C@@H]5c6ccc(O)cc6CC[C@@H]5c5ccccc5)cc3)CC4)C2)C(=O)N1 (stereo partly shown) [A70] | 40 | 75 | 41.9 | 18 | 71 |
| O=C1CCC(N2Cc3c(ccc4c3OCC43CCN(CCN4CCC5(CC4)CCN(c4ccc([C@@H]6c7ccc(O)cc7CC[C@@H]6c6ccccc6)cc4)CC5)CC3)C2=O)C(=O)N1 (stereo partly shown) [A71] | 52 | 86 | 14.5 | 32 | 73 |
| O=C1CCC(N2Cc3c(ccc4c3OCC43CCN(CC(=O)N4CCC5(CC4)CCN(c4ccc([C@@H]6c7ccc(O)cc7CC[C@@H]6c6ccccc6)cc4)C5)CC3)C2=O)C(=O)N1 (stereo partly shown) [A72] | 39 | 51 | 6840 | 33 | 64 |
| O=C1CCC(N2Cc3c(ccc4c3OCC43CCN(CC(=O)N4CCC5(CCN(c6ccc([C@@H]7c8ccc(O)cc8CC[C@@H]7c7ccccc7)cc6)CC5)C4)CC3)C2=O)C(=O)N1 (stereo partly shown) [A73] | 55 | 73 | 4170 | 26 | 72 |
| O=C1CCC(N2Cc3c(ccc4c3OCC43CCN(C(=O)CN4CCC5(CC4)CCN(c4ccc([C@@H]6c7ccc(O)cc7CC[C@@H]6c6ccccc6)cc4)C5)CC3)C2=O)C(=O)N1 (stereo partly shown) [A75] | 53 | 76 | 7.71 | 16 | 14 |
| O=C1CCC(N2Cc3cc4c(cc3C2=O)CCC2(CN(C(=O)CN3CCC5(CCN(c6ccc([C@@H]7c8ccc(O)cc8CC[C@@H]7c7ccccc7)cc6)CC5)C3)C2)O4)C(=O)N1 (stereo partly shown) [A76] | 40 | 68 | 19300 | -6 | 12 |
| O=C1CCC(N2Cc3cc4c(cc3C2=O)OC2(CC4)CN(C(=O)CN3CCC4(CCN(c5ccc([C@@H]6c7ccc(O)cc7CC[C@@H]6c6ccccc6)cc5)CC4)C3)C2)C(=O)N1 (stereo partly shown) [A77] | 54 | 78 | 52100 | 29 | 61 |
| O=C1CCC(N2Cc3c(ccc4c3OCC43CCN(C4CCN(C(=O)C5CCN(c6ccc([C@@H]7c8ccc(O)cc8CC[C@@H]7c7ccccc7)cc6)CC5)CC4)CC3)C2=O)C(=O)N1 (stereo partly shown) [A78] | 79 | 89 | 3.35 | 64 | 78 |
| O=C1CCC(N2Cc3c(ccc4c3OCC43CCN(CC(=O)N4CCC(C#Cc5ccc([C@@H]6c7ccc(O)cc7CC[C@@H]6c6ccccc6)cc5)CC4)CC3)C2=O)C(=O)N1 (stereo partly shown) [A79] | 40 | 60 | 2.59 | 45 | 47 |
| O=C1CCC(N2Cc3c(ccc4c3OCC43CCN(C4CC5(CCC6(CC5)CN(c5ccc([C@@H]7c8ccc(O)cc8CC[C@@H]7c7ccccc7)cc5)C6)C4)CC3)C2=O)C(=O)N1 (stereo partly shown) [A81] | -33 | 45 | 22.3 | -39 | 20 |
| O=C1CCC(N2Cc3cc4c(cc3C2=O)OC2(CC4)CN(C3CCN(C(=O)C4CCN(c5ccc([C@@H]6c7ccc(O)cc7CC[C@@H]6c6ccccc6)cc5)CC4)CC3)C2)C(=O)N1 (stereo partly shown) [A82] | 51 | 78 | 448 | 16 | 51 |
| O=C1CCC(N2Cc3c(ccc4c3OCC43CCN(C(=O)C4CCC5(CC4)CN(c4ccc([C@@H]6c7ccc(O)cc7CC[C@@H]6c6ccccc6)cc4)C5)CC3)C2=O)C(=O)N1 (stereo partly shown) [A83] | 40 | 62 | 39 | 23 | 46 |
| O=C1CCC(N2Cc3c(ccc4c3OCC43CCN(C4CCN(C(=O)C5CCC6(CC5)CN(c5ccc([C@@H]7c8ccc(O)cc8CC[C@@H]7c7ccccc7)cc5)C6)CC4)CC3)C2=O)C(=O)N1 (stereo partly shown) [A84] | 56 | 77 | 5.26 | 63 | 74 |
| C[C@@H]1Cc2c([nH]c3ccccc23)[C@@H](c2c(F)cc(N3CCC4(CCN(C(=O)CN5CCC6(CC5)COc5c6ccc6c5CN(C5CCC(=O)NC5=O)C6=O)CC4)CC3)cc2F)N1CC(F)F (stereo partly shown) [A118] | 38 | 79 | 16.3 | -7 | 55 |
| C[C@@H]1Cc2c([nH]c3ccccc23)[C@@H](c2c(F)cc(N3CCC4(CCN(C(=O)CN5CCC6(CC5)COc5c6ccc6c5CN(C5CCC(=O)NC5=O)C6=O)C4)CC3)cc2F)N1CC(F)F (stereo partly shown) [A119] | 51 | 73 | 19.4 | 12 | 66 |
| O=C1CCC(N2Cc3c(ccc4c3OCC43CCN(C4CCN(S(=O)(=O)C5CCN(c6ccc([C@@H]7c8ccc(O)cc8CC[C@@H]7c7ccccc7)cc6)CC5)CC4)CC3)C2=O)C(=O)N1 (stereo partly shown) [A122] | 56 | 65 | 14800 | 40 | 51 |
| O=C1CCC(N2Cc3c(ccc4c3OCC43CCN(C(=O)CC4CCN(c5ccc([C@@H]6c7ccc(O)cc7CC[C@@H]6c6ccccc6)cc5)CC4)CC3)C2=O)C(=O)N1 (stereo partly shown) [A124] | 52 | 52 | 56400 | 18 | 20 |
